The results in this text go back to patent publication US10035790B2, “RORγ modulators” (BRISTOL-MYERS SQUIBB COMPANY, priority 2012, dated 2018).

The term IC50 denotes the concentration that inhibits the measured activity by half.

The target in the test is T1, ligand binding domain of human RORγ (A262-S507) (Homo sapiens, UniProt P51449).
T1 construct: made in house; host or cells: E. coli
T1 sequence (P51449 262-507): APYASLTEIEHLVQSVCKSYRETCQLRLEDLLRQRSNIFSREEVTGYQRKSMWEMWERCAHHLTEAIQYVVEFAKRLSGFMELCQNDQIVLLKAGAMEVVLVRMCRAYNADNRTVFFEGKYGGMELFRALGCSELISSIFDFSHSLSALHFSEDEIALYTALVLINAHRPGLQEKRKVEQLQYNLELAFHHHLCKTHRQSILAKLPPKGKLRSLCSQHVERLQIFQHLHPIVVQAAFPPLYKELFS
Nature of the test: General RORγ SPA binding assay (competition with [3H]25-hydroxycholesterol). Conditions: RORγ SPA binding assay, inhibition of [3H]25-hydroxycholesterol binding; read-out: IC50. The procedure, abridged:
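Scintillation counts from copper His-tag SPA beads (4 mg/mL, 30 min) gave percent inhibition of radioligand binding, from which IC50 values are derived. The E. coli-expressed His-tagged domain (50 nM) is first exposed to compound for 15 min at room temperature in PBS containing 0.5% fatty acid free BSA.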
Take `CNC(=O)C(O)(COc1cccc(C(F)(F)F)n1)c1cnc(C)nc1C1CCN(C(=O)Nc2c(F)cccc2F)CC1` (centres unmarked) [Compound N45, N-(2,6-Difluorophenyl)-4-{5-[1-hydroxy-2-(methylamino)-2-oxo-1-({[6-(trifluoromethyl)pyridin-2-yl]oxy}methyl)ethyl]-2-methylpyrimidin-4-yl}piperidine-1-carboxamide]: the IC50 is 81.9 nM.

`C/C(=N\Oc1ccnc(Cl)c1)c1cnc(N)nc1C1CCN(C(=O)Nc2c(F)cccc2F)CC1` [Compound B59, 4-(2-Amino-5-{(1E)-N-[(2-chloropyridin-4-yl)oxy]ethanimidoyl}pyrimidin-4-yl)-N-(2,6-difluorophenyl)piperidine-1-carboxamide]: the half-inhibitory concentration (IC50) was 49.1 nM. Under `Cc1nc(C)c(-c2nnc(-c3ccnc(C(F)(F)F)n3)o2)c(C2CCN(C(=O)Nc3c(F)cccc3F)CC2)n1` [Compound C28, N-(2,6-Difluorophenyl)-4-(2,6-dimethyl-5-{5-[2-(trifluoromethyl)pyrimidin-4-yl]-1,3,4-oxadiazol-2-yl}pyrimidin-4-yl)piperidine-1-carboxamide] stands 65.2 nM. Then `Cc1ncc(C(=O)NCc2ccc(Cl)cc2C)c(C2CCN(C(=O)Cc3c(F)cccc3F)CC2)n1` [Compound A59, N-(4-chloro-2-methylbenzyl)-4-(1-(2-(2,6-difluorophenyl)acetyl)piperidin-4-yl)-2-methylpyrimidine-5-carboxamide], with 25.5 nM; and `C/C(=N\Oc1cccc(C(F)(F)F)c1)c1c(C)nc(C)nc1C1CCN(C(=O)Cc2c(F)cccc2F)CC1` [Compound B1, (1E)-1-(4-{1-[(2,6-Difluorophenyl)acetyl]piperidin-4-yl}-2,6-dimethylpyrimidin-5-yl)ethanone O-[3-(trifluoromethyl)phenyl]], with 54 nM; and `C/C(=N\Oc1cccc(C(F)(F)F)n1)c1cnc(C)nc1C1CCN(C(=O)Cc2c(F)cccc2F)CC1` [Compound B19, (E)-2-(2,6-difluorophenyl)-1-(4-(2-methyl-5-(1-(((6-(trifluoromethyl)pyridin-2-yl)oxy)imino)ethyl)pyrimidin-4-yl)piperidin-1-yl)ethanone], with 13.9 nM. Then `C/C(=N\Oc1cccc(C(F)(F)F)c1)c1cnc(N)nc1C1CCN(C(=O)Nc2c(F)cccc2F)CC1` [Compound B51, 4-{2-Amino-5-[(1E)-N-{[3-(trifluoromethyl)phenyl]oxy}ethanimidoyl]pyrimidin-4-yl}-N-(2,6-difluorophenyl)piperidine-1-carboxamide], with 8.6 nM; and `Cc1ncc(C(=O)NCc2ccc(C(F)(F)F)nc2)c(C2CCN(C(=O)Cc3c(F)cccc3F)CC2)n1` [Compound A74, 4-(1-(2-(2,6-difluorophenyl)acetyl)piperidin-4-yl)-2-methyl-N-((6-(trifluoromethyl)pyridin-3-yl)methyl)pyrimidine-5-carboxamide], with 619 nM.

Take `Cc1ncc(C(N)(C#N)COc2cccc(C(F)(F)F)n2)c(C2CCN(C(=O)Nc3c(F)cccc3F)CC2)n1` (centres unmarked) [Compound N48, 4-[5-(1-Amino-1-cyano-2-{[6-(trifluoromethyl)pyridin-2-yl]oxy}ethyl)-2-methylpyrimidin-4-yl]-N-(2,6-difluorophenyl)piperidine-1-carboxamide]: the concentration for half-maximal inhibition (IC50) was 5.6 nM. Then `Cc1nc(C)c(-c2nc(-c3cccc(C(F)(F)F)c3)no2)c(C2CCN(C(=O)Nc3c(F)cccc3C(F)(F)F)CC2)n1` [Compound C64, 4-(2,6-Dimethyl-5-{3-[3-(trifluoromethyl)phenyl]-1,2,4-oxadiazol-5-yl}pyrimidin-4-yl)-N-[2-fluoro-6-(trifluoromethyl)phenyl]piperidine-1-carboxamide], with 183 nM; and `Cc1cc(C)cc(CNC(=O)c2c(C3CCN(C(=O)Cc4c(F)cccc4F)CC3)nc(C)[nH]c2=O)c1` [Compound I3, 4-(1-(2-(2,6-Difluorophenyl)acetyl)piperidin-4-yl)-N-(3,5-dimethylbenzyl)-2-methyl-6-oxo-1,6-dihydropyrimidine-5-carboxamide], with 10.7 nM; and `Cc1nc(C)c(-c2nnc(-c3cc(Cl)ccn3)o2)c(C2CCN(C(=O)Cc3c(F)cccc3F)CC2)n1` [Compound C21, 1-(4-(5-(5-(4-chloropyridin-2-yl)-1,3,4-oxadiazol-2-yl)-2,6-dimethylpyrimidin-4-yl)piperidin-1-yl)-2-(2,6-difluorophenyl)ethanone], with 3010 nM. On to `Cc1ncc(C(=O)NOc2cc(F)cc(Cl)c2)c(C2CCN(C(=O)Cc3c(F)cccc3F)CC2)n1` [Compound H6, N-(3-chloro-5-fluorophenoxy)-4-(1-(2-(2,6-difluorophenyl)acetyl)piperidin-4-yl)-2-methylpyrimidine-5-carboxamide], for which the IC50 worked out at 1630 nM. Under `COc1ncc(C(C)(O)COc2cccc(C(F)(F)F)n2)c(C2CCN(C(=O)Nc3c(F)cccc3F)CC2)n1` (centres unmarked) [Compound D45, N-(2,6-Difluorophenyl)-4-[5-(1-hydroxy-1-methyl-2-{[6-(trifluoromethyl)pyridin-2-yl]oxy}ethyl)-2-(methyloxy)pyrimidin-4-yl]piperidine-1-carboxamide] stands 3.4 nM.

For `CC(=O)NCC(O)(COc1cccc(C(F)(F)F)n1)c1cnc(C)nc1C1CCN(C(=O)Oc2ccccc2F)CC1` (centres unmarked) [Compound N43, 2-Fluorophenyl 4-{5-[2-(acetylamino)-1-hydroxy-1-({[6-(trifluoromethyl)pyridin-2-yl]oxy}methyl)ethyl]-2-methylpyrimidin-4-yl}piperidine-1-carboxylate], the IC50 came out at 9.2 nM. For `CC(=O)Nc1ncc(C(C)(O)COc2ccnc(C(F)(F)F)n2)c(C2CCN(C(=O)Cc3c(F)cccc3F)CC2)n1` (centres unmarked) [Compound D33, N-[4-{1-[(2,6-Difluorophenyl)acetyl]piperidin-4-yl}-5-(1-hydroxy-1-methyl-2-{[2-(trifluoromethyl)pyrimidin-4-yl]oxy}ethyl)pyrimidin-2-yl]acetamide], the IC50 stood at 14 nM. Turning to `CCC/C(=N/Oc1cccc(C(F)(F)F)c1)c1c(C)nc(C)nc1C1CCN(C(=O)Cc2c(F)cccc2F)CC1` [Compound B49, (1Z)-1-(4-{1-[(2,6-difluorophenyl)acetyl]piperidin-4-yl}-2,6-dimethylpyrimidin-5-yl)butan-1-one O-[3-(trifluoromethyl)phenyl]oxime], the IC50 was found to be 1970 nM.

As for `Cc1ncc(C2(COc3cccc(C(F)(F)F)n3)CCO2)c(C2CCN(C(=O)Nc3c(F)cccc3F)CC2)n1` (centres unmarked) [Compound N51, N-(2,6-Difluorophenyl)-4-{2-methyl-5-[2-({[6-(trifluoromethyl)pyridin-2-yl]oxy}methyl)oxetan-2-yl]pyrimidin-4-yl}piperidine-1-carboxamide], the IC50 was 4.9 nM. For `CC(=O)N1CCC(NC(COc2cccc(C(F)(F)F)n2)c2cnc(C)nc2C2CCN(C(=O)Nc3c(F)cccc3F)CC2)CC1` (centres unmarked) [Compound N28, 4-[5-(1-[(1-Acetylpiperidin-4-yl)amino]-2-{[6-(trifluoromethyl)pyridin-2-yl]oxy}ethyl)-2-methylpyrimidin-4-yl]-N-(2,6-difluorophenyl)piperidine-1-carboxamide], the IC50 turned out to be 71 nM. Then `CC(=O)NCC(O)(COc1cccc(C(F)(F)F)n1)c1cnc(C)nc1C1CCN(C(=O)Nc2c(F)cccc2F)CC1` (centres unmarked) [Compound N37, 4-{5-[2-(Acetylamino)-1-hydroxy-1-({[6-(trifluoromethyl)pyridin-2-yl]oxy}methyl)ethyl]-2-methylpyrimidin-4-yl}-N-(2,6-difluorophenyl)piperidine-1-carboxamide], with 36.9 nM; and `Cc1ncc(C(CF)=NOc2ccnc(C(F)(F)F)c2)c(C2CCN(C(=O)Cc3c(F)cccc3F)CC2)n1` [Compound B24, (1Z)-1-(4-{1-[(2,6-Difluorophenyl)acetyl]piperidin-4-yl}-2-methylpyrimidin-5-yl)-2-fluoroethanone 0-[2-(trifluoromethyl)pyridin-4-yl]oxime], with 8.7 nM; and `Cc1ncc(C(C)(O)COc2cncc(Cl)c2)c(C2CCN(C(=O)Cc3c(F)cccc3F)CC2)n1` (centres unmarked) [Compound D13, 1-(4-(5-(1-((5-chloropyridin-3-yl)oxy)-2-hydroxypropan-2-yl)-2-methylpyrimidin-4-yl)piperidin-1-yl)-2-(2,6-difluorophenyl)ethanone], with 8.9 nM. Then `C/C(=N/Oc1ccnc(C(F)(F)F)c1)c1c(C)nc(C)nc1C1CCN(C(=O)Cc2c(F)cccc2F)CC1` [Compound B2, (1Z)-1-(4-{1-[(2,6-Difluorophenyl)acetyl]piperidin-4-yl}-2,6-dimethylpyrimidin-5-yl)ethanone 0-[2-(trifluoromethyl)pyridin-4-yl]oxime], with 444 nM; and `Cc1cc(C)cc(CCC(C)(O)c2cnc(C)nc2C2CCN(C(=O)Cc3c(F)cccc3F)CC2)c1` (centres unmarked) [Compound D15, 2-(2,6-Difluorophenyl)-1-(4-(5-(4-(3,5-dimethylphenyl)-2-hydroxybutan-2-yl)-2-methylpyrimidin-4-yl)piperidin-1-yl)ethanone], with 33.9 nM.

In the case of `Cc1ncc(C(C)(C)CNc2nccc(C(F)(F)F)n2)c(C2CCN(C(=O)Cc3c(F)cccc3F)CC2)n1` [Compound F2, 2-(2,6-difluorophenyl)-1-(4-(2-methyl-5-(2-methyl-1-((4-(trifluoromethyl)pyrimidin-2-yl)amino)propan-2-yl)pyrimidin-4-yl)piperidin-1-yl)ethanone], the IC50 turned out to be 26 nM. Then `Cc1ncc(C(=O)NCc2cccc(Cl)c2F)c(C2CCN(C(=O)Cc3c(F)cccc3F)CC2)n1` [Compound A54, N-(3-chloro-2-fluorobenzyl)-4-(1-(2-(2,6-ditluorophenyl)acetyl)piperidin-4-yl)-2-methylpyrimidine-5-carboxamide], with 13.9 nM.
